In ChEMBL document CHEMBL1142482, “Synthesis of novel benzamidine- and guanidine-derived polyazamacrocycles: Selective anti-protozoal activity for human African trypanosomiasis” (Bioorg Med Chem Lett, 2008):

Key:
Trypanosoma brucei = assay: Antitrypanosomal activity against bloodstream Trypanosoma brucei P2 by Alamar blue assay; type: functional, organism-based
Plasmodium falciparum = assay: Antiplasmodial activity against Plasmodium falciparum; type: functional, organism-based
[1] = Cytotoxicity against HEK cells; type: cell-based; conditions: Homo sapiens, HEK293
[2] = Lipophilicity, log P of the compound; type: physicochemical; conditions: octanol/water

| EC50 (Trypanosoma brucei) [µM] | EC50 (Plasmodium falciparum) [µM] | logP [2] | SMILES | EC50 [1] [µM] |
| --- | --- | --- | --- | --- |
| 1.3 | < 1.5 |  | c1ccc2c(c1)ccc1ccc(C3CNCCNCCNCCN3)cc12 (stereo unspecified) | 24.9 |
| 41.2 | > 100 | -1.64 | N=C(N)NCc1ccc(C2CNCCNCCNCCN2)cc1 (stereo unspecified) | > 200 |
| 22 | > 100 | -1.44 | N=C(N)c1ccc(C2CNCCNCCNCCN2)cc1 (stereo unspecified) | > 200 |
| 0.5 |  |  | O=C(Nc1ccc([N+](=O)[O-])cc1)OCCN1CCN(CCOC(=O)Nc2ccc([N+](=O)[O-])cc2)CCN(CCOC(=O)Nc2ccc([N+](=O)[O-])cc2)CCN(CCOC(=O)Nc2ccc([N+](=O)[O-])cc2)CC1 | 1.3 |
| > 200 | > 100 | -1.12 | NCc1ccc(C2CNCCNCCNCCN2)cc1 (stereo unspecified) | > 200 |
| > 200 | > 100 | -0.65 | N#Cc1ccc(C2CNCCNCCNCCN2)cc1 (stereo unspecified) | > 200 |
